Where a name gives a salt, the structure may show the parent alone.
Target: T1, human β3 adrenergic receptor (Homo sapiens, UniProt P13945)
T1 construct: stably transfected with the cloned β-adrenergic receptor (β1, β2 or β3); expressed in transfected cells; host or cells: Chinese hamster ovary (CHO) cells, stably transfected
Assay: Functional assay: cAMP production (LANCE TR-FRET) in CHO cells stably transfected with cloned β3 adrenergic receptor
Format: cell-based
Settings: Table 2; cAMP production, CHO cells expressing human β3 AR; read-out: Human β3 functional
Experimental: Functional Assay: cAMP production in response to ligand is measured according to Barton, et al. (1991, Agonist-induced desensitization of D2 dopamine receptors in human Y-79 retinoblastoma cells. Mol. Pharmacal. v3229:650-658) modified as follows, cAMP production is measured using a homogenous time-resolved fluorescence resonance energy transfer immunoassay (LANCE™, Perkin Elmer) according to the manufacture's instructions. Chinese hamster ovary (CHO) cells, stably transfected with the cloned β-adrenergic receptor (β1, β2 or β3) are harvested after 3 days of subculturing. Harvesting of cells is done with Enzyme-free Dissociation Media (Specialty Media). Cells are then counted and resuspended in assay buffer (Hank's Balanced salt solution supplemented with 5 mM HEPES, […]) containing a phosphodiesterase inhibitor (IBMX, 0.6 mM). The reaction is initiated by mixing 6,000 cells in 6 μL with 6 μL Alexa Fluor labeled cAMP antibody (LANCE™ kit) which is then added to an assay well containing 12 μL of compound (diluted in assay buffer to 2× final concentration). The reaction proceeds for 30 min at room temperature and is terminated by the addition of 24 ul detection buffer (LANCE™ kit). The assay plate is then incubated for 1 h at room temperature and time-resolved fluorescence measured on a Perkin Elmer Envision reader or equivalent. The unknown cAMP level is determined by comparing fluorescence levels to a cAMP standard curve.
The non-selective, full agonist β-adrenergic ligand isoproterenol is used at all three receptors to determine maximal stimulation. The human β3 adrenergic receptor (AR) selective ligand (S)-N-[4-[2-[[2-hydroxy-3-(4-hydroxyphenoxy)propyl]amino]ethyl]-phenyl]-4-iodobenzenesulfonamide is used as a control in all assays. Isoproterenol is titrated at a final concentration in the assay of 10^-10 M to 10-5 and the selective ligand (S)-N-[4-[2-[[2-hydroxy-3-(4-hydroxyphenoxy)propyl]amino]ethyl]phenyl]-4-iodobenzenesulfonamide is titrated at the β3 receptor at concentration of 10^-10 M to 10^-5 M. Unknown ligands are titrated at all 3 β-adrenergic receptor subtypes at a final concentration in the assay of 10^-10 M to 10^-5 M to determine the EC50. The EC50 is defined as the concentration of compound that gives 50% activation of its own maximum. Data are analyzed using Microsoft Excel and Graphpad Prism or an internally developed data analysis software package.

T1 sequence (P13945 whole entry): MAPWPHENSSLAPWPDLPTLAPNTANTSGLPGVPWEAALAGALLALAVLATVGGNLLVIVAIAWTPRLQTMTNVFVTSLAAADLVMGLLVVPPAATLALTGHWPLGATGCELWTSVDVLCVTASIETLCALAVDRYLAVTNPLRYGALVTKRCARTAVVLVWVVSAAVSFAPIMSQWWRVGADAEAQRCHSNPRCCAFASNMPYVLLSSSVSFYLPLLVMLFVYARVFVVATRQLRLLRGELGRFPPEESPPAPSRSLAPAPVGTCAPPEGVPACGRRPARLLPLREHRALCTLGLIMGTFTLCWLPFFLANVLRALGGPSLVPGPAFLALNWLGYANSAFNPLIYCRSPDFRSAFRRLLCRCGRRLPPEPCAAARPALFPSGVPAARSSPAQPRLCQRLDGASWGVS

SMILES	EC50 [nM]
O=C(Cn1cnc2ccccc2c1=O)Nc1ccc(CC2CC[C@H]([C@H](O)c3cccnc3)N2)cc1 (single isomer, unassigned) [Example 12]	1 to 10
O=C(Cn1cnc2ccccc2c1=O)Nc1ccc(CC2CC[C@H]([C@H](O)c3cccnc3)N2)cc1 (single isomer, unassigned) [Example 64]	1 to 10

Same assay, conditions: Table 3; cAMP production, CHO cells expressing human β3 AR; read-out: Human β3 functional

SMILES	EC50 [nM]
CC(C(=O)Nc1ccc(CC2CC[C@H]([C@H](O)c3cccnc3)N2)cc1)n1cccn1 (single isomer, unassigned) [Example 97]	11 to 100
CC(C(=O)Nc1ccc(CC2CC[C@H]([C@H](O)c3cccnc3)N2)cc1)n1cccn1 (single isomer, unassigned) [Example 98]	11 to 100
Cc1ccn(C(C)C(=O)Nc2ccc(CC3CC[C@H]([C@H](O)c4cccnc4)N3)cc2)n1 (single isomer, unassigned) [Example 99]	11 to 100
Cc1ccn(C(C)C(=O)Nc2ccc(CC3CC[C@H]([C@H](O)c4cccnc4)N3)cc2)n1 (single isomer, unassigned) [Example 100]	1000 to 3000
Cc1nc(C(C)C(=O)Nc2ccc(CC3CC[C@H]([C@H](O)c4cccnc4)N3)cc2)cs1 (single isomer, unassigned) [Example 101]	1 to 10
Cc1nc(C(C)C(=O)Nc2ccc(CC3CC[C@H]([C@H](O)c4cccnc4)N3)cc2)cs1 (single isomer, unassigned) [Example 102]	101 to 1000
Cc1nc(C(C)C(=O)Nc2ccc(CC3CC[C@H]([C@H](O)c4cccnc4)N3)cc2)c(C)s1 (single isomer, unassigned) [Example 103]	101 to 1000
Cc1nc(C(C)C(=O)Nc2ccc(CC3CC[C@H]([C@H](O)c4cccnc4)N3)cc2)c(C)s1 (single isomer, unassigned) [Example 104]	1000 to 3000
CC(C(=O)Nc1ccc(CC2CC[C@H]([C@H](O)c3cccnc3)N2)cc1)c1csc(N)n1 (single isomer, unassigned) [Example 105]	1 to 10
CC(C(=O)Nc1ccc(CC2CC[C@H]([C@H](O)c3cccnc3)N2)cc1)c1csc(N)n1 (single isomer, unassigned) [Example 106]	1 to 10
CCCC(C(=O)Nc1ccc(CC2CC[C@H]([C@H](O)c3cccnc3)N2)cc1)c1csc(N)n1 (single isomer, unassigned) [Example 107]	11 to 100
CCCC(C(=O)Nc1ccc(CC2CC[C@H]([C@H](O)c3cccnc3)N2)cc1)c1csc(N)n1 (single isomer, unassigned) [Example 108]	1 to 10
CCCC(C(=O)Nc1ccc(CC2CC[C@H]([C@H](O)c3cccnc3)N2)cc1)c1cnc(N)s1 (single isomer, unassigned) [Example 109]	1 to 10
C#CCC(C(=O)Nc1ccc(CC2CC[C@H]([C@H](O)c3cccnc3)N2)cc1)c1cnc(N)s1 (single isomer, unassigned) [Example 110]	1 to 10
CC(C(=O)Nc1ccc(CC2CC[C@H]([C@H](O)c3cccnc3)N2)cc1)c1csc(C(F)(F)F)n1 (single isomer, unassigned) [Example 111]	11 to 100
CC(C(=O)Nc1ccc(CC2CC[C@H]([C@H](O)c3cccnc3)N2)cc1)c1csc(C(F)(F)F)n1 (single isomer, unassigned) [Example 112]	101 to 1000

Same assay, conditions: cAMP production, CHO cells expressing human β3 AR; read-out: human Beta-3 agonist functional activity

SMILES	EC50 [nM]
C[C@H](C(=O)Nc1ccc(C[C@@H]2CC[C@H]([C@H](O)c3cccnc3)N2)cc1)c1ccccn1 (single isomer, unassigned) [Example 93, trifluoroacetic acid salt]	< 100
C[C@@H](C(=O)Nc1ccc(C[C@@H]2CC[C@H]([C@H](O)c3cccnc3)N2)cc1)c1ccccn1 (single isomer, unassigned) [Example 94, trifluoroacetic acid salt]	< 100
C[C@@H](C(=O)Nc1ccc(C[C@@H]2CC[C@H]([C@H](O)c3cccnc3)N2)cc1)n1ccccc1=O (single isomer, unassigned) [Example 95]	< 10
C[C@H](C(=O)Nc1ccc(C[C@@H]2CC[C@H]([C@H](O)c3cccnc3)N2)cc1)n1ccccc1=O (single isomer, unassigned) [Example 96, trifluoroacetic acid salt]	< 10

Source: patent US8501786B2, “Hydroxymethyl pyrrolidines as beta 3 adrenergic receptor agonists” (Merck Sharp & Dohme Corp., priority 2009, dated 2013)
